Experimental data from US7312330B2, “Bicycloheteroarylamine compounds as ion channel ligands and uses thereof” (Renovis, Inc., priority 2003, dated 2007).

Biological target: hVR1 (Homo sapiens, UniProt Q8NER1)
Assay: Calcium imaging assay (Fura2) of VR1 antagonists, proton stimulation
Type: cell-based
Details: HEK 293 cells expressing hVR1; for % Inhibition @ 1 μM: calcium ion influx induced by proton stimulation (pH 5.7); for IC50: calcium ion influx induced by proton stimulation
Text: VR1 protein is a heat-gated cation channel that exchanges about 10 calcium ions for every sodium ion resulting in neuronal membrane depolarization and elevated intracellular calcium ion levels. Therefore the functional activity of compounds at the VR1 receptor may be determined by measuring changes in intracellular calcium levels in 293 cells expressing capsaicin-insensitive VR1 receptor variants. A dual wavelength ratiometric dye, Fura2, was used as an indicator of relative levels of calcium ions in a 96 well format using a bench top scanning fluorometer with integrated fluidics and temperature control (Flex Station, Molecular Devices).
A dual wavelength ratiometric dye, Fura2, was used as an indicator of relative levels of [Ca2+] in a 96 well format using a bench top scanning fluorometer with integrated fluidics and temperature control (Flex Station, Molecular Devices).
HEK 293 cells expressing hVR1 were grown on PDL coated 96-well black-walled plates, in the presence of a DMEM medium containing 5% Penstrep, 5% Glutamax, 200 ug/mL Hygromycin, 5 μg/mL Blasticide and 10% heat inactivated FBS. Prior to assay, the cells were loaded with 5 μg/mL Fura2 in normal saline solution at 37° C. for 40 minutes. Cells were then washed with normal saline to remove the dye.
The assay consists of two stages; a pre-treatment phase followed by a treatment phase. In the pretreatment phase, 50 μl of a compound solution was added to the cells. Immediately following, 50 μl of the test compound in the presence of agonist (a saline solution plus 10 mM citric acid bufferd to pH 5.7 with HCl) was added. Fura2 was excited at […] to indicate relative calcium concentration. Changes in wavelength measurements were made throughout the course of the experiment in 4 second intervals over a period of 3 minutes. The fluorescence ratio from the excitations at […] was recorded for analysis. Responses were measured as peak fluorescence ratio after compound-agonist addition minus baseline fluorescence ratio prior to treatment and were calculated for each concentration tested using the SoftMaxPro software. Data was expressed as percentage inhibition calculated as follows: […]
A dose response curve was then determined, from which the ID50 of each compound was calculated.

hVR1, sequence (Q8NER1 whole entry): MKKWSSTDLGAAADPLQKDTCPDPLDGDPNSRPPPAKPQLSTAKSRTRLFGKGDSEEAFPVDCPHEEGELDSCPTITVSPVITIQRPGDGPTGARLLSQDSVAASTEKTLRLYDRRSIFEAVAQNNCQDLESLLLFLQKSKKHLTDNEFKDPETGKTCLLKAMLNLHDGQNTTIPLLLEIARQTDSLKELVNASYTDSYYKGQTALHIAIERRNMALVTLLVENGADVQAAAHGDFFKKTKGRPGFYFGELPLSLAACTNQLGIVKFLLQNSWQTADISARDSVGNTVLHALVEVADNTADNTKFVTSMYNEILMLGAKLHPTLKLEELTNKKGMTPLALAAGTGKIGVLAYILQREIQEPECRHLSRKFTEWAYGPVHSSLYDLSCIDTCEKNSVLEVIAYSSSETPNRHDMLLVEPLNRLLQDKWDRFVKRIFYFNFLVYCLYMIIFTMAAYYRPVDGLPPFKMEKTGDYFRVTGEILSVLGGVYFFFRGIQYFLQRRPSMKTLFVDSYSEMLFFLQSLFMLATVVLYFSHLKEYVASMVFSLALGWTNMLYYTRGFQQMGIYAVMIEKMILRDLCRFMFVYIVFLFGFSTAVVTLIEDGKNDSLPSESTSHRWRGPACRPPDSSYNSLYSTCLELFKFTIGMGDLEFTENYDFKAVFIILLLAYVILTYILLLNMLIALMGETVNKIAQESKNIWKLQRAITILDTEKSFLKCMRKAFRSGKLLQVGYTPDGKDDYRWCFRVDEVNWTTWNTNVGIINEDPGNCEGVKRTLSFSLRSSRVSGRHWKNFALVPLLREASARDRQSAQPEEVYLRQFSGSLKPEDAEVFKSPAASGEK

SMILES: COCc1nc2c(c(Nc3ccc(C(C)(C)C)cc3)n1)CCN(c1ncccc1C(F)(F)F)C2.Cl [Example 6, (4-tert-Butyl-phenyl)-[2-methoxymethyl-7-(3-trifluoromethyl-pyridin-2-yl)-5,6,7,8-tetrahydro-pyrido[3,4-d]pyrimidin-4-yl]-amine hydrochloride]
- % Inhibition @ 1 μM: ++++ (compound exhibited 76% or greater inhibition of calcium ion influx induced by proton stimulation)
- IC50: < 100 nM

SMILES: FC(F)(F)c1ccc(Nc2ncnc3c2CCN(c2ccccc2)C3)cc1 [Example 44, 7-(Phenyl)-N-(4-(trifluoromethyl)phenyl)-5,6,7,8-tetrahydropyrido[3,4-d]pyrimidin-4-amine]
- % Inhibition @ 1 μM: + (compound exhibited 0-25% inhibition of calcium ion influx induced by proton stimulation)
- IC50: > 1000 nM

SMILES: FC(F)Oc1ccc(Nc2ncnc3c2CCN(c2ncccc2Cl)C3)cc1 [Example 15, 7-(3-Chloropyridin-2-yl)-N-(4-(difluoromethoxy)phenyl)-5,6,7,8-tetrahydropyrido[3,4-d]pyrimidin-4-amine]
- % Inhibition @ 1 μM: +++ (compound exhibited 51-75% inhibition of calcium ion influx induced by proton stimulation)
- IC50: 101 to 500 nM

SMILES: CC1(C)C(=O)Nc2cc(Nc3ncnc4c3CCN(c3ncccc3Cl)C4)ccc21 [Example 67, 6-(7-(3-Chloropyridin-2-yl)-5,6,7,8-tetrahydropyrido[3,4-d]pyrimidin-4-ylamino)-3,3-dimethylindolin-2-one]
- IC50: > 1000 nM

SMILES: Clc1cccnc1N1CCc2c(ncnc2NCCCc2ccccc2)C1 [Example 51, 7-(3-Chloropyridin-2-yl)-5,6,7,8-tetrahydro-N-(3-phenylpropyl)pyrido[3,4-d]pyrimidin-4-amine]
- % Inhibition @ 1 μM: + (compound exhibited 0-25% inhibition of calcium ion influx induced by proton stimulation)

SMILES: CC1(C)C(=O)NC(=O)c2cc(Nc3ncnc4c3CCN(c3ncccc3Cl)C4)ccc21 [Example 58, 7-(7-(3-Chloropyridin-2-yl)-5,6,7,8-tetrahydropyrido[3,4-d]pyrimidin-4-ylamino)-4,4-dimethylisoquinoline-1,3(2H,4H)-dione]
- IC50: > 1000 nM

SMILES: FC(F)(F)c1ccnc(N2CCc3c(ncnc3Nc3ccc4c(c3)OCCO4)C2)c1 [Example 71, 7-(4-(Trifluoromethyl)pyridin-2-yl)-5,6,7,8-tetrahydro-N-(2,3-dihydrobenzo[b][1,4]dioxin-7-yl)pyrido[3,4-d]pyrimidin-4-amine]
- % Inhibition @ 1 μM: + (compound exhibited 0-25% inhibition of calcium ion influx induced by proton stimulation)
- IC50: > 1000 nM

SMILES: O=C(O)COc1nc2c(c(Nc3ccc(C(F)(F)F)cc3)n1)CCN(c1ncccc1Cl)C2 [Example 75, 2-(4-(4-(Trifluoromethyl)phenylamino)-7-(3-chloropyridin-2-yl)-5,6,7,8-tetrahydropyrido[3,4-d]pyrimidin-2-yloxy)acetic acid]
- % Inhibition @ 1 μM: + (compound exhibited 0-25% inhibition of calcium ion influx induced by proton stimulation)
- IC50: > 1000 nM

SMILES: Nc1nc2c(c(Nc3ccc(C(F)(F)F)cc3)n1)CCN(c1ncccc1Cl)C2 [Example 17, 7-(3-Chloro-pyridin-2-yl)-N^4-(4-trifluoromethyl-phenyl)-5,6,7,8-tetrahydro-pyrido[3,4-d]pyrimidine-2,4-diamine]
- % Inhibition @ 1 μM: ++++ (compound exhibited 76% or greater inhibition of calcium ion influx induced by proton stimulation)

SMILES: Cc1ccc(N2CCc3c(ncnc3Nc3ccc(C(F)(F)F)cc3)C2)cc1 [Example 47, 7-(p-Tolyl)-N-(4-(trifluoromethyl)phenyl)-5,6,7,8-tetrahydropyrido[3,4-d]pyrimidin-4-amine]
- % Inhibition @ 1 μM: ++ (compound exhibited 26-50% inhibition of calcium ion influx induced by proton stimulation)
- IC50: 501 to 1000 nM

SMILES: Fc1ccc(Nc2ncnc3c2CCN(c2ncccc2Cl)C3)cc1 [Example 19, 7-(3-Chloropyridin-2-yl)-N-(4-fluorophenyl)-5,6,7,8-tetrahydropyrido[3,4-d]pyrimidin-4-amine]
- % Inhibition @ 1 μM: + (compound exhibited 0-25% inhibition of calcium ion influx induced by proton stimulation)
- IC50: > 1000 nM
